How the values were obtained:
BACE = BACE (Homo sapiens (Human), UniProt P56817); test: BACE cell assay: secreted Aβ 1-40 in H4-APPsw cells (AlphaLISA/ELISA, Example 434B); format: cell-based; conditions: in vitro cell activity, Aβ 1-40 in culture media after overnight treatment
[1] = molecular target: truncated human beta-secretase (residues 1-458, His6-tagged) (Homo sapiens (Human), UniProt P56817); test: BACE enzyme assay (fluorescence quench, Example 434A); format: biochemical
truncated human beta-secretase (residues 1-458, His6-tagged), sequence (P56817 22-458): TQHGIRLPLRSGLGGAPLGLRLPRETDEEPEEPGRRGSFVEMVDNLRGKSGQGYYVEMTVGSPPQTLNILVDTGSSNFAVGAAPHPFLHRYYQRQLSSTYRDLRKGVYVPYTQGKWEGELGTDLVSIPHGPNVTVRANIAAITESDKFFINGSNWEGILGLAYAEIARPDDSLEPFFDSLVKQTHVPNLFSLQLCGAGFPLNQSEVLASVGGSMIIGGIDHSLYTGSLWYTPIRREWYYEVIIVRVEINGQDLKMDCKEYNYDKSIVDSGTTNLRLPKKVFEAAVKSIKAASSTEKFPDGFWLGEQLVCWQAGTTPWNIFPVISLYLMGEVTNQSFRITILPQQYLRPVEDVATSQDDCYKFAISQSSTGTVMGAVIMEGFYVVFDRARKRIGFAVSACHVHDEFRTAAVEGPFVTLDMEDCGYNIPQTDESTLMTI

BACE, sequence (P56817 46-501 limits assumed): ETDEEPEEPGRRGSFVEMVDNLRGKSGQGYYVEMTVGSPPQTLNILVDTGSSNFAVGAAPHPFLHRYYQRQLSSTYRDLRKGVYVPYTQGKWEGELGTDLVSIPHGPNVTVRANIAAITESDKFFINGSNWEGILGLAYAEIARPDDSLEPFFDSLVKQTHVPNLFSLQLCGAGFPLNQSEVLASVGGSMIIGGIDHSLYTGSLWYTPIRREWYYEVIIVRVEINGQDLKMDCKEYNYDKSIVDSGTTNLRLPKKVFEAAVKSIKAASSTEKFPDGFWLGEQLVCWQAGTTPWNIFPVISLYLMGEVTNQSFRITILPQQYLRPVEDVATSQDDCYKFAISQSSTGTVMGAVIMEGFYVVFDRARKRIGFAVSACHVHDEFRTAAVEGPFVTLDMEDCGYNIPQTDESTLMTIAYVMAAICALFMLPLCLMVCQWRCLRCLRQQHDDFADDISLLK

| IC50 (BACE) [µM] | SMILES | IC50 [1] [µM] |
| --- | --- | --- |
| < 1 | CCOC1CCC2(CC1)Cc1ccc(-c3cccc(C#N)c3)cc1C21N=C(N)N(C)O1 (centres unmarked) [Compound 49] | – |
| – | CN1OC2(N=C1N)c1ccccc1CC21CCc2ccccc2CC1 (centres unmarked) [Compound 35] | 0.105 |
